Assay results as given in patent publication US20080267861A1, “Myocardial Perfusion Imaging” (CV THERAPEUTICS, INC., priority 2007, published 2008).
Values belong to the compound of their own block, whether it stands above or below them.

Tests used:
[1] = test system: patients requiring pharmacologic MPI; experiment: SPECT myocardial perfusion imaging: heart-to-background ratios, image quality, perfusion defects; format: in vivo, human; conditions: for heart-to-gut ratio, mean (SD) / heart-to-liver ratio, mean (SD) / heart-to-liver+gut ratio, mean (SD): 39 patients undergoing both scans, 99mTc-Sestamibi
Experimental: (§1) In this multicenter study, subjects requiring pharmacologic MPI based on clinical criteria received adenosine infusion (Astellas Pharma, Inc.), 140 mcg/kg/min over 6 min in the supine position (AdenoSup), following enrollment and were then randomized (2:1) in a double-blind manner to a novel protocol (RegEx) consisting of 4 min of sub-maximal exercise (1.7 mph at 0% grade) with bolus intravenous injection of 400 mcg Regadenoson at 1.5 min and ^99mTechnetium-Sestamibi at 2 min or matching placebos (PlcEx).
Prior to randomization, patients were stratified based on the presence of reversible perfusion defects, defined as a two or more segments with a stress score >rest score and a stress score >2 on a 5-category scale, as interpreted by a board-certified nuclear cardiologist at each site. The 5-category scale, used both for stratifying patients and for evaluation of perfusion defects on study, was as follows: 0=normal; 1=mild reduction in tracer uptake, not definitely abnormal; 2=moderate reduction in uptake, definitely abnormal; 3=severe reduction in uptake; 4=absent uptake.
(§2) The primary objective was to assess the overall safety of Regadenoson in patients undergoing low-level stress by comparing hemodynamic, cardiac rhythm and adverse effects of the 3 protocols. In addition, patient acceptance was determined by comparing patient comfort and test protocol preference using questionnaires. Three blinded expert readers independently interpreted randomly presented perfusion scans at a nuclear core lab (Services NucMed, Montreal, Canada). Image quality was compared between AdenoSup and RegEx by computation of heart-to-liver and heart-to-gut ratios and the readers' visual assessment of overall image quality and image quality with respect to subdiaphragmatic interference specifically. A 17-segment MPI model was used by the core lab readers, to compare the extent of the perfusion defect between RegEx and AdenoSup quantitatively and also qualitatively with side-by-side visual comparison. Patients were required to abstain from methylxanthine-containing foods and beverages for 12 hours prior to receiving study drug and adenosine. The protocol was approved by an institutional review board and all patients provided written informed consent.
Nuclear imaging was performed using either a dual isotope protocol or a two-day ^99mTechnetium-Sestainibi protocol at the investigators' discretion. However, men with body weight >220 pounds and body mass index >30 kg/m2 and women with body weight >200 pounds and body mass index >30 kg/m2 were to undergo the two day protocol. The single photon emission computed tomography (SPECT) imaging was standardized for image acquisition and transmittal in accordance with the American Society of Nuclear Cardiology guidelines. The protocol required an extra ˜8 mSv radiation to the patients in the study arm, and none to the patients in the control (placebo exercise) arm.
The dual isotope protocol was performed over 2 separate days. On the first day, patients were to have a rest scan with ^201Thallium followed by a ^99mTechnetium-Sestamibi adenosine-supine MPI; on a subsequent day, patients underwent a ^99mTechnetium-Sestamibi study drug (i.e., regadenoson or placebo) sub-maximal treadmill exercise MPI.
The multi-day ^99mTechnetium-Sestamibi was performed over 3 days. On the first day, patients were to have a ^99mTechnetium-Sestamibi adenosine supine MPI or ^99mTechnetium-Sestamibi rest scan. […] The second and third days were not necessarily consecutive to the first day.
The stress MPI scans were to be performed 60±10 minutes after the start of adenosine or study drug.
Changes in blood pressure, heart rate, and ECG intervals were computed over time and compared (Regadenoson vs. placebo) using repeated measures, mixed-model ANOVA. The incidence of symptomatic hypotension, systolic blood pressure decreases of >20 mm Hg, ECG abnormalities, and severe or related adverse events was compared using Fisher's exact test. […]

[2] = test system: patients requiring pharmacologic MPI; experiment: Hemodynamic, cardiac rhythm and ECG effects of MPI protocols; format: in vivo, human; conditions: for effects on ECG intervals: AdenoSup, RegEx and PlcEx compared; for patients with arrhythmias following both AdenoSup and RegEx / patients with arrhythmias following this protocol only: adverse events or ECG findings; for occurrences of 2nd degree or higher AV block: in vivo
Experimental: as §1, §2
(§3) Changes in blood pressure, heart rate, and ECG intervals were computed over time and compared (Regadenoson vs. placebo) using repeated measures, mixed-model ANOVA. The incidence of symptomatic hypotension, systolic blood pressure decreases of >20 mm Hg, ECG abnormalities, and severe or related adverse events was compared using Fisher's exact test. The quality of nuclear MPI scans following regadenoson and low-level exercise was compared to adenosine-supine MPI scans of the same subject using the sign test. Radiotracer target-to-background ratios were computed and compared between the two imaging regimens using the Wilcoxon signed ranks test. Semi-quantitative scoring of perfusion defects (Summed Stress Score (SSS), Summed Difference Score (SDS), etc.) was conducted using a 17-segment polar map and the quality of agreement between the two imaging regimens was assessed using […]

[3] = test system: patients requiring pharmacologic MPI; experiment: Adverse events during MPI protocols; format: in vivo, human; conditions: for frequency of dyspnea: 39 crossover patients
Experimental: as §1, §2, §3

[4] = test system: patients requiring pharmacologic MPI; experiment: Patient comfort and test protocol preference questionnaires; format: in vivo, human; conditions: for tolerability: 400 mcg bolus during low-level exercise
Experimental: as §2
Cohen's kappa for the categories 0-3, 4-7, 8-11, and >12 (SSS) and 0-6, 7-13, and >14 (SDS). The number of segments with reversible perfusion defects was defined as the median number across the three readers. Subject comfort and tolerability were assessed using a 4-point scale and the regimens compared using a Cochran-Mantel-Haenszel test of equality of mean scores. Data are expressed as mean (SD) unless otherwise specified. Statistical analyses were conducted using SAS version 9.1. Statistical significance was defined as a p-value of <0.05.

[5] = relative to adenosine; cited from earlier work
[6] = AdenoSup, later randomized to RegEx (n = 39)

SMILES: Nc1ncnc2c1ncn2[C@@H]1O[C@H](CO)[C@@H](O)[C@H]1O [Adenosine, adenosine, reference compound]
heart-to-gut ratio, mean (SD) [1]: 0.97 (0.34)
heart-to-liver ratio, mean (SD) [1]: 0.65 (0.26)
heart-to-liver+gut ratio, mean (SD) [1]: 0.72 (0.18)
patients in whom reversible perfusion defects were detected ([1]; of 39 patients): 51.3%
patients in whom reversible perfusion defects were detected ([1]; out of 39 patients): 20
effects on ECG intervals [2]: similar
patients with arrhythmias following both AdenoSup and RegEx [2]: 2
patients with arrhythmias following this protocol only [2]: 3
occurrences of 2nd degree or higher AV block [2]: one
peak heart rate, increase from resting baseline ([2]; mean (SE)): +21.0 (SE 2.5) bpm
frequency of dyspnea [3]: 41%
patients with at least one adverse event ([3]; 62 patients dosed): 95%
Adverse event: Stomach Discomfort, patients ([3]; AdenoSup, later randomized to PlcEx (n = 21)): 0
Adverse event: Dizziness, patients [3, 6]: 0
Adverse event: Pain in Jaw, patients [3, 6]: 0
patients with severe adverse events ([3]; AdenoSup: of 60 patients): 4
patients with protocol-defined symptomatic hypotension ([3]; in vivo): One
patients with severe adverse events ([3]; of 60 patients): 6.7%

patients reporting being very uncomfortable or extremely uncomfortable ([4]; 4-point scale): No patients
patients reporting the test as "a little uncomfortable" ([4]; 4-point scale): 41%
patients reporting the test as "comfortable" ([4]; 4-point scale): 59%
SMILES: CNC(=O)c1cnn(-c2nc(N)c3ncn([C@@H]4O[C@H](CO)[C@@H](O)[C@H]4O)c3n2)c1 [Regadenoson, (1-{9-[(4S,2R,3R,5R)-3,4-dihydroxy-5-(hydroxymethyl)oxolan-2-yl]-6-aminopurin-2-yl}pyrazol-4-yl)-N-methylcarboxamide]
tolerability [4]: feasible and well tolerated
tolerability ([4]; listed as RegEx): well tolerated
heart-to-gut ratio, mean (SD) [1]: 1.1 (0.36)
heart-to-liver ratio, mean (SD) [1]: 0.85 (0.34)
heart-to-liver+gut ratio, mean (SD) [1]: 0.93 (0.26)
image quality with respect to subdiaphragmatic interference, side-by-side RegEx vs AdenoSup ([1]; 39 patients, blinded readers): significantly better
overall image quality, side-by-side comparison RegEx vs AdenoSup ([1]; 39 patients, blinded readers, listed as RegEx): significantly better overall image quality
patients in whom reversible perfusion defects were detected ([1]; of 39 patients): 64.1%
patients in whom reversible perfusion defects were detected ([1]; out of 39 patients): 25
heart rate over the pre-exercise baseline ([2]; 24 minutes following start of exercise, mean (SE)): +4.6 (SE 1.5) bpm
effects on ECG intervals [2]: similar
peak heart rate greater than following AdenoSup ([2]; RegEx vs AdenoSup): 21 bpm
peak heart rate greater than following PlcEx ([2]; RegEx vs PlcEx): 13 bpm
systolic blood pressure analyses (change in mean SBP, nadir SBP, decline >20 mm Hg) ([2]; RegEx vs PlcEx and vs AdenoSup): no important differences
patients with arrhythmias following both AdenoSup and RegEx [2]: 2
patients with arrhythmias following this protocol only [2]: 1
heart rate higher than the pre-exercise baseline ([2]; by 24 minutes following the study drug bolus): < 5 bpm
occurrences of 2nd degree or higher AV block [2]: No occurrences
peak heart rate, increase from resting baseline ([2]; mean (SE)): 41.9 (SE 2.7) bpm
increase of mean maximum heart rate over sub-maximal exercise with placebo ([2]; with sub-maximal exercise): 16.5 beats per minute
mean maximum heart rate increase ([2]; with sub-maximal exercise (Discussion)): +40.2 (1.5) bpm
frequency of dyspnea [3]: 54%
patients with severe adverse events ([3]; AdenoSup: of 60 patients): no patient
Adverse event: Chest Pain, patients ([3]; RegEx (n = 39)): 0
Adverse event: Pain in Jaw, patients ([3]; RegEx (n = 39)): 0
Adverse event: Throat tightness, patients ([3]; RegEx (n = 39)): 0
patients with at least one adverse event ([3]; n=39): 77%

SMILES: OCCN(CCO)c1nc(N2CCCCC2)c2nc(N(CCO)CCO)nc(N3CCCCC3)c2n1 [dipyridamole]
half-life [5]: longer than that of adenosine
